Laboratory results published in ChEMBL document CHEMBL1146458, “Five new maleic and succinic acid derivatives from the mycelium of Antrodia camphorata and their cytotoxic effects on LLC tumor cell line” (2004).
≈ marks a conversion by molar mass, not a printed value.

Assay: Cytotoxicity against mouse LLC cells after 48 hrs by SRB assay
Type: functional
Conditions: Lewis lung carcinoma, read-out: ED50 (the source's name)
In the case of `CC(C)=CCOc1ccc([C@H]2C(=O)N(O)C(=O)[C@@H]2CC(C)C)cc1` (relative stereo), the EC50 is reported as over 10 µg/mL.
For `COc1cccc2c1C(=O)c1c(O)c3c(c(O)c1C2=O)C[C@@](O)(C(=O)CO)C[C@@H]3O[C@H]1C[C@H](N)[C@H](O)[C@H](C)O1` [DOXORUBICIN], the EC50 was 0.14 µg/mL (≈ 0.258 µM).
`CC(C)=CCOc1ccc(C2=C(CC(C)C)C(=O)OC2=O)cc1` gave an EC50 of over 20 µg/mL.
With `CC(C)=CCOc1ccc(C2=C(CC(C)C)C(=O)NC2=O)cc1` the EC50 was 3.6 µg/mL (≈ 11.5 µM).
Compound `CC(C)=CCOc1ccc(C2=C(CC(C)C)C(=O)N(O)C2=O)cc1` has an EC50 of 7.5 µg/mL (≈ 22.8 µM).
